# According to ChEMBL document CHEMBL1201862, “PubChem BioAssay data set” (2004):
#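 A five-concentration, 48-hour dose response in 96-well plates underlies each endpoint, interpolated linearly between surrounding concentrations. The concentration for 50% growth inhibition is given as GI50.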 Active and inactive are the calls of the source. No stated cut-off is given here; in the data, active = GI50 up to about 1.1 µM and inactive = higher. Where a SMILES comes first, the peptide text is derived from it. The star is where a group is joined. Boc = CC(C)(C)OC(=O)*
# Columns and labels:
# Assay in all cases: growth of human tumour cells (NCI), 48 h
# [1] = tested on: 786-0
# [2] = tested on: A498
# [3] = tested on: A549
# [4] = tested on: ACHN
# [5] = tested on: CAKI-1
# [6] = tested on: CCRF-CEM
# [7] = tested on: COLO 205
# [8] = tested on: DLD-1
# [9] = tested on: DMS-114
# [10] = tested on: DMS-273
# [11] = tested on: EKVX
# [12] = tested on: HCC 2998
# [13] = tested on: HCT-116
# [14] = tested on: HCT-15
# [15] = tested on: HL-60
# [16] = tested on: HOP-62
# [17] = tested on: HOP-92
# [18] = tested on: HT-29
# [19] = tested on: IGROV-1
# [20] = tested on: K562
# [21] = tested on: KM-20L2
# [22] = tested on: KM12
# [23] = tested on: LOX IMVI
# [24] = tested on: LXFL 529
# [25] = tested on: M14
# [26] = tested on: M19-MEL
# [27] = tested on: MOLT-4
# [28] = tested on: Malme-3M
# [29] = tested on: NCI-H226
# [30] = tested on: NCI-H23
# [31] = tested on: NCI-H460
# [32] = tested on: NCI-H522
# [33] = tested on: OVCAR-3
# [34] = tested on: OVCAR-4
# [35] = tested on: OVCAR-5
# [36] = tested on: OVCAR-8
# [37] = tested on: RPMI-8226
# [38] = tested on: RXF 393
# [39] = tested on: RXF 631
# [40] = tested on: SF-295
# [41] = tested on: SF-539
# [42] = tested on: SK-MEL-28
# [43] = tested on: SK-MEL-2
# [44] = tested on: SK-MEL-5
# [45] = tested on: SK-OV-3
# [46] = tested on: SN12C
# [47] = tested on: SNB-19
# [48] = tested on: SNB-75
# [49] = tested on: SNB-78
# [50] = tested on: SR
# [51] = tested on: SW-620
# [52] = tested on: TK-10
# [53] = tested on: U-251
# [54] = tested on: UACC-257
# [55] = tested on: UACC-62
# [56] = tested on: UO-31
# [57] = tested on: XF498
# [58] = tested on: SF-268
smiles,measurement,setting,value
CCN(CC)CCCN1CCc2c([nH]c3ccccc23)C1c1cccnc1 (configuration not stated),GI50,[1],> 100 µM (inactive)
same,GI50,[2],> 100 µM (inactive)
same,GI50,[3],> 100 µM (inactive)
same,GI50,[4],> 100 µM (inactive)
same,GI50,[5],> 100 µM (inactive)
same,GI50,[6],> 100 µM (inactive)
same,GI50,[7],> 100 µM (inactive)
same,GI50,[8],> 100 µM (inactive)
same,GI50,[9],> 100 µM (inactive)
same,GI50,[10],> 100 µM (inactive)
same,GI50,[11],> 100 µM (inactive)
same,GI50,[12],> 100 µM (inactive)
same,GI50,[13],> 100 µM (inactive)
same,GI50,[14],> 100 µM
same,GI50,[15],> 100 µM (inactive)
same,GI50,[16],> 100 µM (inactive)
same,GI50,[17],29.2 µM (inactive)
same,GI50,[18],> 100 µM (inactive)
same,GI50,[19],> 100 µM (inactive)
same,GI50,[20],> 100 µM (inactive)
same,GI50,[21],> 100 µM (inactive)
same,GI50,[22],> 100 µM (inactive)
same,GI50,[23],> 100 µM (inactive)
same,GI50,[24],> 100 µM (inactive)
same,GI50,[25],61.2 µM (inactive)
same,GI50,[26],> 100 µM (inactive)
same,GI50,[27],> 100 µM (inactive)
same,GI50,[28],74.1 µM (inactive)
same,GI50,[29],> 100 µM (inactive)
same,GI50,[30],> 100 µM (inactive)
same,GI50,[31],> 100 µM (inactive)
same,GI50,[32],> 100 µM (inactive)
same,GI50,[33],88.3 µM (inactive)
same,GI50,[34],96.8 µM (inactive)
same,GI50,[35],> 100 µM (inactive)
same,GI50,[36],> 100 µM (inactive)
same,GI50,[37],> 100 µM (inactive)
same,GI50,[38],> 100 µM (inactive)
same,GI50,[39],> 100 µM (inactive)
same,GI50,[40],> 100 µM (inactive)
same,GI50,[41],> 100 µM (inactive)
same,GI50,[42],38.4 µM (inactive)
same,GI50,[43],> 100 µM (inactive)
same,GI50,[44],59.8 µM (inactive)
same,GI50,[45],> 100 µM (inactive)
same,GI50,[46],> 100 µM (inactive)
same,GI50,[47],> 100 µM (inactive)
same,GI50,[48],> 100 µM (inactive)
same,GI50,[49],> 100 µM (inactive)
same,GI50,[50],> 100 µM (inactive)
same,GI50,[51],> 100 µM (inactive)
same,GI50,[52],> 100 µM (inactive)
same,GI50,[53],> 100 µM (inactive)
same,GI50,[54],42.8 µM (inactive)
same,GI50,[55],> 100 µM (inactive)
same,GI50,[56],83.9 µM (inactive)
same,GI50,[57],5.22 µM (inactive)
CSCCC(NC(=O)C(CC(C)C)NC(=O)C1CCCN1C(=O)C(Cc1ccccc1)NC(=O)C(Cc1ccccc1)NC(=O)C(CCC(=O)O)NC(=O)OC(C)(C)C)C(N)=O (configuration not stated) (Boc-EFFPLM-NH2; configuration not given here),GI50,[1],> 100 µM (inactive)
same,GI50,[2],> 100 µM (inactive)
same,GI50,[5],> 100 µM (inactive)
same,GI50,[6],> 100 µM (inactive)
same,GI50,[7],> 100 µM (inactive)
same,GI50,[8],> 100 µM (inactive)
same,GI50,[9],> 100 µM (inactive)
same,GI50,[10],> 100 µM (inactive)
same,GI50,[12],> 100 µM (inactive)
same,GI50,[13],> 100 µM (inactive)
same,GI50,[15],> 100 µM (inactive)
same,GI50,[16],> 100 µM (inactive)
same,GI50,[17],> 100 µM (inactive)
same,GI50,[19],> 100 µM (inactive)
same,GI50,[20],> 100 µM (inactive)
same,GI50,[23],> 100 µM (inactive)
same,GI50,[24],> 100 µM (inactive)
same,GI50,[25],> 100 µM (inactive)
same,GI50,[26],> 100 µM (inactive)
same,GI50,[27],> 100 µM (inactive)
same,GI50,[28],> 100 µM (inactive)
same,GI50,[29],> 100 µM (inactive)
same,GI50,[30],> 100 µM (inactive)
same,GI50,[31],> 100 µM (inactive)
same,GI50,[32],> 100 µM (inactive)
same,GI50,[34],> 100 µM (inactive)
same,GI50,[37],> 100 µM (inactive)
same,GI50,[39],> 100 µM (inactive)
same,GI50,[58],> 100 µM (inactive)
same,GI50,[41],> 100 µM (inactive)
same,GI50,[42],> 100 µM (inactive)
same,GI50,[43],> 100 µM (inactive)
same,GI50,[45],> 100 µM (inactive)
same,GI50,[46],> 100 µM (inactive)
same,GI50,[48],> 100 µM (inactive)
same,GI50,[49],> 100 µM (inactive)
same,GI50,[50],> 100 µM (inactive)
same,GI50,[55],> 100 µM (inactive)
same,GI50,[56],> 100 µM (inactive)
same,GI50,[57],> 100 µM (inactive)
